Laboratory results published in patent EP3763715A1, “HARRINGTONINES SALTS, IN PARTICULAR RETINOATES, THEIR PROCESS OF PREPARATION AND THEIR USES IN THE TREATMENT OF LEUKEMIAS, CANCERS, AUTOIMMUNE, SKIN, ALZHEIMER'S AND INFLAMMATORY BOWEL DISEASES AND VIRAL INFECTIONS, COMBINED WITH MYELOPOIESIS STIMULATING AGENTS” (Robin, Jean-Pierre, priority 2019, dated 2021).

Legend:
[1] = system: multidrug-resistant cell lines; details: greater than that of HHT; cited from earlier work
[2] = system: Swiss nu/nu mice; assay: Toxicity seen in mice bearing MDA-MB-468 xenografts (in vivo efficacy study); details: 1 mg/kg, subcutaneously, bi-daily, mice with MDA-MB-468 xenografts; all mice died after only a few days; preliminary experiment, data not shown
Protocol: The experiments were conducted according to the Guide for the Care and Use of Laboratory Animals published by the US National Institutes of Health (NIH Publication n°85-23, revised 1996) and approved by the Ethic Committee of Clermont-Ferrand, France. All mouse studies were conducted in the animal facility of the INSERM U1240. Six weeks old Swiss nu/nu mice were purchased from Charles River Laboratories France and housed in standard conditions (n=5 per cage on ventilated racks, at 21-24 °C, 60% humidity, 12 h light/12 h dark cycle) with ad libitum access to irradiated food and water. […]
For assessment of HHT toxicity, groups of 6 mice were injected with sterile saline or 1, 2, 4 or 8 mg/kg of the drug, subcutaneously, bi-daily, over 7 days. […] The number of live animals was determined at days 4, 8 and 10, after treatment initiation.
For evaluation of HHT efficacy in vivo, when xenografts reached a volume of 200±20 mm^3, mice were randomized into the control or the treated group. […] Tumor size was non-invasively assessed using a digital caliper on days 3, 6, 8 and 10 after treatment initiation. Tumor volume was calculated using the following formula: V=(length×width^2)/2.

## C/C=C/C=C/COC(=O)C[C@](O)(CCCC(C)(C)O)C(=O)O[C@@H]1C(OC)=C[C@]23CCCN2CCc2cc4c(cc2[C@H]13)OCO4 [OP5215]
[1]
  antileukemic activity: 5 times

## COC(=O)C[C@](O)(CCCC(C)(C)O)C(=O)O[C@@H]1C(OC)=C[C@]23CCCN2CCc2cc4c(cc2[C@H]13)OCO4 [HHT, Homoharringtonine]
[2]
  toxicity for the animals: too toxic
